Reference: patent US20250230193A1, “CYCLIC COMPOUND HAVING SELECTIVE KRAS INHIBITORY EFFECT ON HRAS AND NRAS” (CHUGAI SEIYAKU KABUSHIKI KAISHA, priority 2022, published 2025)
Where a SMILES comes first, the peptide text is derived from it. Bridges are numbered along the chain shown (N, C = ends). [ ]: non-standard residue; d: D form. The star is where a group is joined. hPhe(3-Cl-4-CF3) = N[C@@H](CCc1ccc(C(F)(F)F)c(Cl)c1)C(=O)O; NPrPhe(4-CF3) = CCCN[C@@H](Cc1ccc(C(F)(F)F)cc1)C(=O)O; NEtPhe(4-F) = CCN[C@@H](Cc1ccc(F)cc1)C(=O)O; NMeGly(cPent) = CN[C@H](C(=O)O)C1CCCC1; NMeD = CN[C@@H](CC(=O)O)C(=O)O; NMeL = CN[C@@H](CC(C)C)C(=O)O; Morpholide = C1CN(*)CCO1; NMeA = CN[C@@H](C)C(=O)O; Ac5c = NC1(C(=O)O)CCCC1; Aze = O=C(O)[C@@H]1CCN1; Sar = CNCC(=O)O

Tests used:
[1] = target: GDP-bound HRAS wild-type protein (Homo sapiens, UniProt P01112); test: Binding to HRAS by surface plasmon resonance (SPR), Single Cycle Kinetics; settings: SPR; for HRAS/KRAS (ratio of KD value for HRAS to KD value for KRAS) / HRAS/KRAS (ratio of KD value with respect to HRAS to KD value with respect to KRAS): GDP-bound HRAS wild-type vs GDP-bound KRAS wild-type
[2] = target: GDP-bound NRAS wild-type protein (Homo sapiens, UniProt P01111); test: Binding to NRAS by surface plasmon resonance (SPR), Single Cycle Kinetics; settings: SPR; for NRAS/KRAS (ratio of KD value for NRAS to KD value for KRAS) / NRAS/KRAS (ratio of KD value with respect to NRAS to KD value with respect to KRAS): GDP-bound NRAS wild-type vs GDP-bound KRAS wild-type
Sequence of GDP-bound NRAS wild-type protein (P01111 whole entry): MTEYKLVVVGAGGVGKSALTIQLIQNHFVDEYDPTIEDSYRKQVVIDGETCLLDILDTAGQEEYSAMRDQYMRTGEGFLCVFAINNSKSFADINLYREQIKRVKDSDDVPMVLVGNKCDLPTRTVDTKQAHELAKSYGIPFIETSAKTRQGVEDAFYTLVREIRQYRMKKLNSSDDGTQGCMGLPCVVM

Sequence of GDP-bound HRAS wild-type protein (P01112 whole entry): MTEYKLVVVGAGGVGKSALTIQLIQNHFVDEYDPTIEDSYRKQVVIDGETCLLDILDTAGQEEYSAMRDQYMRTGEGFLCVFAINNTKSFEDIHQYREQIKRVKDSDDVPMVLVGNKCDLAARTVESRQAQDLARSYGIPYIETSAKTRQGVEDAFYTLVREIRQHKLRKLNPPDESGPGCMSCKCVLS

SMILES: CCO[C@@H]1C[C@H]2C(=O)NC3(CCC3)C(=O)N(C)[C@@H](C3CCCC3)C(=O)N(C)[C@H](C(=O)N3CCOCC3)CC(=O)N(C)[C@@H](CC3CCCCC3)C(=O)N[C@@H]([C@@H](C)CC)C(=O)N(C)CC(=O)N(C)[C@H]3CCCCCN(C3=O)[C@@H](Cc3ccc(C(F)(F)F)cc3)C(=O)N(C)CC(=O)N[C@@H](CCc3cc(F)c(C(F)(F)F)c(F)c3)C(=O)N2C1 [PP0686]
- HRAS/KRAS (ratio of KD value with respect to GDP-bound HRAS wild-type protein to KD value with respect to KRAS) [1]: B (a compound having 3 or more and less than 10 is denoted as B)
- NRAS/KRAS (ratio of KD value with respect to GDP-bound NRAS wild-type protein to KD value with respect to KRAS) [2]: B (a compound having 3 or more and less than 10 is denoted as B)

SMILES: CCO[C@@H]1C[C@H]2C(=O)NC3(CC(C)(C)C3)C(=O)N(C)[C@@H](C3CCCC3)C(=O)N(C)[C@H](C(=O)N(CC)CC)CC(=O)N(C)[C@@H](CC)C(=O)N[C@@H]([C@@H](C)CC)C(=O)N(C)CC(=O)N(C)[C@H]3C/C=C\CCN(C3=O)[C@@H](Cc3ccc(C)cc3)C(=O)N(C)CC(=O)N[C@@H](CCc3ccc(C(F)(F)F)c(OC)c3)C(=O)N2C1 [PP1881]
- HRAS/KRAS (ratio of KD value for HRAS to KD value for KRAS) ([1]; KD ratio): A (a compound having 10 or more and less than 20 is denoted as A)
- NRAS/KRAS (ratio of KD value for NRAS to KD value for KRAS) ([2]; KD ratio): A (a compound having 10 or more and less than 20 is denoted as A)

SMILES: CC[C@H](C)[C@@H]1NC(=O)[C@H](CC(C)C)N(C)C(=O)C[C@@H](C(=O)N2CCOCC2)N(C)C(=O)[C@H](C2CCCC2)N(C)C(=O)C2(CCCC2)NC(=O)[C@@H]2CC(=O)CN2C(=O)[C@H](CCc2cc(F)c(C(F)(F)F)c(F)c2)NC(=O)CN(C)C(=O)[C@H](Cc2ccc(C(F)(F)F)cc2)N2CCCC[C@@H](C2=O)N(C)C(=O)CN(C)C1=O [PP0555]
- HRAS/KRAS (ratio of KD value with respect to GDP-bound HRAS wild-type protein to KD value with respect to KRAS) [1]: B (a compound having 3 or more and less than 10 is denoted as B)
- NRAS/KRAS (ratio of KD value with respect to GDP-bound NRAS wild-type protein to KD value with respect to KRAS) [2]: B (a compound having 3 or more and less than 10 is denoted as B)

SMILES: CCO[C@@H]1C[C@H]2C(=O)NC3(CCC3)C(=O)N(C)[C@@H](C3CCCC3)C(=O)N(C)[C@H](C(=O)N(C)C)CC(=O)N(C)[C@@H](CC)C(=O)N[C@@H]([C@@H](C)CC)C(=O)N(C)CC(=O)N(C)[C@H]3CCCCN(C3=O)[C@@H](Cc3ccc(C(F)(F)F)cc3)C(=O)N(C)CC(=O)N[C@@H](CCc3c(F)c(F)c(C(F)(F)F)c(F)c3F)C(=O)N2C1 [PP0886]
- HRAS/KRAS (ratio of KD value with respect to HRAS to KD value with respect to KRAS) ([1]; KD ratio): B (a compound having 3 or more and less than 10 is denoted as B)
- NRAS/KRAS (ratio of KD value with respect to NRAS to KD value with respect to KRAS) ([2]; KD ratio): C (A compound having a KD ratio of 0.1 or more and less than 3 is denoted as C)

SMILES: CCO[C@@H]1C[C@H]2C(=O)NC3(CCC3)C(=O)N(C)[C@@H](C3CCCC3)C(=O)N(C)[C@H](C(=O)N(C)C)CC(=O)N(C)[C@@H](CC(F)(F)F)C(=O)N[C@@H]([C@@H](C)CC)C(=O)N(C)CC(=O)N(C)[C@H]3C/C=C\CCN(C3=O)[C@@H](Cc3ccc(C(F)(F)F)cc3)C(=O)N(C)CC(=O)N[C@@H](CCc3cc(F)c(C(F)(F)F)c(F)c3)C(=O)N2C1 [PP1124]
- HRAS/KRAS (ratio of KD value with respect to HRAS to KD value with respect to KRAS) ([1]; KD ratio): B (a compound having 3 or more and less than 10 is denoted as B)
- NRAS/KRAS (ratio of KD value with respect to NRAS to KD value with respect to KRAS) ([2]; KD ratio): A (a compound having 10 or more and less than 20 is denoted as A)

SMILES: CCOC[C@H]1C(=O)N[C@@H]([C@@H](C)CC)C(=O)N(C2CC2)CC(=O)N(C)[C@H]2C/C=C\CCN(C2=O)[C@@H](Cc2ccc(C(F)(F)F)cc2)C(=O)N(C)CC(=O)N[C@@H](CCc2ccc(C(F)(F)F)c(OC)c2)C(=O)N2C[C@H](OCC)C[C@H]2C(=O)N(C)C2(CCC2)C(=O)N(C)[C@@H](C(CC)CC)C(=O)N(C)[C@H](C(=O)N(C)C)CC(=O)N1C [PP2315]
- HRAS/KRAS (ratio of KD value with respect to HRAS to KD value with respect to KRAS) [1]: A (a compound having 10 or more and less than 20 is denoted as A)
- NRAS/KRAS (ratio of KD value with respect to NRAS to KD value with respect to KRAS) [2]: A (a compound having 10 or more and less than 20 is denoted as A)

SMILES: C#CCN1CC(=O)N(C)[C@H]2C/C=C\CCN(C2=O)[C@@H](Cc2ccc(C(F)(F)F)cc2)C(=O)N(C)CC(=O)N[C@@H](CCc2cc(F)c(C(F)(F)F)c(F)c2)C(=O)N2C[C@H](OCC)C[C@H]2C(=O)NC2(CC(C)(C)C2)C(=O)N(C)[C@@H](C2CCCC2)C(=O)N(C)[C@H](C(=O)N(C)C)CC(=O)N(C)[C@@H](CC)C(=O)N[C@@H]([C@@H](C)CC)C1=O [PP2087]
- HRAS/KRAS (ratio of KD value with respect to HRAS to KD value with respect to KRAS) [1]: A (a compound having 10 or more and less than 20 is denoted as A)
- NRAS/KRAS (ratio of KD value with respect to NRAS to KD value with respect to KRAS) [2]: A (a compound having 10 or more and less than 20 is denoted as A)

SMILES: CC[C@H](C)[C@@H]1NC(=O)[C@H](CC(C)C)N(C)C(=O)C[C@@H](C(=O)N2CCOCC2)N(C)C(=O)[C@H](C2CCCC2)N(C)C(=O)C2(CCCC2)NC(=O)[C@@H]2CCCN2C(=O)[C@H](CCc2ccc(C(F)(F)F)c(Cl)c2)NC(=O)CN(C)C(=O)[C@H](Cc2ccc(F)cc2)N(CC)C(=O)[C@@H]2CCN2C(=O)[C@H](C)N(C)C1=O [PP0218] ([NMeL]I[NMeA][Aze][NEtPhe(4-F)][Sar][hPhe(3-Cl-4-CF3)]P[Ac5c][NMeGly(cPent)][NMeD]-Morpholide; lactam N-11)
- HRAS/KRAS (ratio of KD for GDP-bound HRAS wild-type to KD for KRAS) [1]: C (A compound having a KD ratio of 0.1 or more and less than 3 is denoted as C)
- NRAS/KRAS (ratio of KD for GDP-bound NRAS wild-type to KD for KRAS) [2]: C (A compound having a KD ratio of 0.1 or more and less than 3 is denoted as C)

SMILES: CCCOC[C@H]1C(=O)N[C@@H]([C@@H](C)CC)C(=O)N(C)CC(=O)N(C)[C@H]2C/C=C\CCN(C2=O)[C@@H](Cc2ccc(C)cc2)C(=O)N(C)CC(=O)N[C@@H](CCc2ccc(C(F)(F)F)c(OC)c2)C(=O)N2C[C@H](OCC)C[C@H]2C(=O)N(C)C2(CCC2)C(=O)N(C)[C@@H](C2CCCC2)C(=O)N(C)[C@H](C(=O)N(C)C)CC(=O)N1C [PP2326]
- HRAS/KRAS (ratio of KD value with respect to HRAS to KD value with respect to KRAS) [1]: B (a compound having 3 or more and less than 10 is denoted as B)
- NRAS/KRAS (ratio of KD value with respect to NRAS to KD value with respect to KRAS) [2]: A (a compound having 10 or more and less than 20 is denoted as A)

SMILES: CCCN1C(=O)CN(C)C(=O)[C@@H]2CCCN2C(=O)[C@H]([C@@H](C)CC)NC(=O)[C@H](CC(C)C)N(C)C(=O)C[C@@H](C(=O)N2CCOCC2)N(C)C(=O)[C@H](C2CCCC2)N(C)C(=O)C2(CCCC2)NC(=O)[C@@H]2CCCN2C(=O)[C@H](CCc2ccc(C(F)(F)F)c(Cl)c2)NC(=O)CN(C)C(=O)[C@@H]1Cc1ccc(C(F)(F)F)cc1 [PP0165] ([NMeL]IP[Sar][NPrPhe(4-CF3)][Sar][hPhe(3-Cl-4-CF3)]P[Ac5c][NMeGly(cPent)][NMeD]-Morpholide; lactam N-11)
- HRAS/KRAS (ratio of KD for GDP-bound HRAS wild-type to KD for KRAS) [1]: B (a compound having 3 or more and less than 10 is denoted as B)
- NRAS/KRAS (ratio of KD for GDP-bound NRAS wild-type to KD for KRAS) [2]: B (a compound having 3 or more and less than 10 is denoted as B)

SMILES: CCCN(C)C(=O)[C@@H]1CC(=O)N(C)[C@@H](CC)C(=O)N[C@@H]([C@@H](C)CC)C(=O)N(C)CC(=O)N(C)[C@H]2C/C=C\CCN(C2=O)[C@@H](Cc2ccc(C(F)(F)F)cc2)C(=O)N(C)CC(=O)N[C@@H](CCc2ccc(C(F)(F)F)c(OC)c2)C(=O)N2C[C@H](OCC)C[C@H]2C(=O)NC2(CC(C)(C)C2)C(=O)N(C)[C@@H](C2CCCC2)C(=O)N1C [PP1654]
- HRAS/KRAS (ratio of KD value for HRAS to KD value for KRAS) ([1]; KD ratio): A (a compound having 10 or more and less than 20 is denoted as A)
- NRAS/KRAS (ratio of KD value for NRAS to KD value for KRAS) ([2]; KD ratio): A (a compound having 10 or more and less than 20 is denoted as A)
